Reference: patent US8889714B2, “3,4-substituted piperidine derivatives as renin inhibitors” (Actelion Pharmaceuticals Ltd., priority 2008, dated 2014)
Where two headings read alike, the source gives them in different places.

Tests used:
Human recombinant renin = molecular target: T1, Human recombinant renin (Homo sapiens, UniProt P00797); assay: Inhibition of human recombinant renin (buffer); type: biochemical; settings: 100 pM renin, 50 mM MOPS pH 7.4, 37° C., 3 hours
T1 construct: purchased Proteos
T1 sequence (P00797 67-406): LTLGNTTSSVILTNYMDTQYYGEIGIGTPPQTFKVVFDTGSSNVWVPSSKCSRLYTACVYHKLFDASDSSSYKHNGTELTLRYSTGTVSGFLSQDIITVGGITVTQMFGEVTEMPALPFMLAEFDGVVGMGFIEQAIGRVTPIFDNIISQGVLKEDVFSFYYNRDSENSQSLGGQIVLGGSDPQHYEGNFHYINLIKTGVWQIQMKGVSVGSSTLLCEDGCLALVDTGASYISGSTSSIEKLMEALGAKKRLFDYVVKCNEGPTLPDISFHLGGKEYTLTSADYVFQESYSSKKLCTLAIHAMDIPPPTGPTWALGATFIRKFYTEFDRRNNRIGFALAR
Experimental: Fluorescence is measured at times 0 and 3 hours with a SpectraMax Gemini EM reader set at an excitation wavelength of 328 nm and at an emission wavelength of 388 nm. Background fluorescence at t=0 is subtracted from the measurement at t=3 hours. Inhibitory activity of the compounds is expressed as IC50.

[1] = molecular target: T2, recombinant renin in human plasma (Homo sapiens, UniProt P00797); assay: Inhibition of renin in human plasma; type: biochemical; settings: human EDTA plasma, 1 nM recombinant renin added, 37° C., 1 hour
T2 construct: purchased Proteos
T2 sequence (P00797 67-406): T1 sequence (P00797 67-406)
Experimental: Human EDTA-collected plasma is rapidly thawed in warm water and centrifuged at 2900 g for 15 minutes at 4° C. The supernatant is collected and recombinant renin (Proteos) is added at a final concentration of 1 nM. […] The plate is incubated at 37° C. for 1 hour. […] Background fluorescence at t=0 is subtracted from the measurement at t=1 hour. Inhibitory activity of the compounds is expressed as IC50.

[2] = read-out: Human Renin IC50 (buffer)
[3] = read-out: Human Renin IC50 (plasma)

SMILES | IC50 (Human recombinant renin; [2]) [nM] | IC50 [1, 3] [nM] | IC50 (Human recombinant renin; Human Renin IC50 (buffer)) [nM] | IC50 ([1]; Human Renin IC50 (plasma)) [nM]
COCCCc1cc(Cl)c(Cl)c(CN(C(=O)[C@@H]2CNCC[C@H]2c2ccn(C)c(=O)c2)C2CC2)c1 (relative stereo) [Example 5, trans-N-Cyclopropyl-N-({2,3-dichloro-5-[3-(methyloxy)propyl]phenyl}methyl)-4-(1-methyl-2-oxo-1,2-dihydro-4-pyridinyl)-3-piperidinecarboxamide] | 0.3 | 1.3 | – | –
CCn1ccc([C@@H]2CCNC[C@H]2C(=O)N(Cc2cc(CCCOC)cc(OCCOC)c2)C2CC2)cc1=O (relative stereo) [Example 12, trans-N-Cyclopropyl-4-(1-ethyl-2-oxo-1,2-dihydro-4-pyridinyl)-N-({3-{[2-(methyloxy)ethyl]oxy}-5-[3-(methyloxy)propyl]phenyl}methyl)-3-piperidinecarboxamide] | 200 | 460 | – | –
COCCCc1cc(CN(C(=O)[C@@H]2CNCC[C@H]2c2cc(=O)n(C)c(C)c2C)C2CC2)cc(OCCOC)c1 (relative stereo) [Example 13, trans-N-Cyclopropyl-N-({3-{[2-(methyloxy)ethyl]oxy}-5-[3-(methyloxy)propyl]phenyl}methyl)-4-(1,5,6-trimethyl-2-oxo-1,2-dihydro-4-pyridinyl)-3-piperidinecarboxamide] | 25 | 80 | – | –
COCCCc1cc(CN(C(=O)[C@@H]2CNCC[C@H]2c2ccn(C)c(=O)c2)C2CC2)c2ccccc2c1 (relative stereo) [Example 18, trans-N-Cyclopropyl-4-(1-methyl-2-oxo-1,2-dihydro-4-pyridinyl)-N-({3-[3-(methyloxy)propyl]-1-naphthalenyl}methyl)-3-piperidinecarboxamide] | 0.4 | 1.8 | – | –
COCCCc1cc(CN(C(=O)[C@@H]2CNCC[C@H]2c2ccn(C)c(=O)c2)C2CC2)c2ccccc2n1 (relative stereo) [Example 25, trans-N-Cyclopropyl-4-(1-methyl-2-oxo-1,2-dihydro-4-pyridinyl)-N-({2-[3-(methyloxy)propyl]-4-quinolinyl}methyl)-3-piperidinecarboxamide] | 1.4 | 3 | – | –
COCCCc1cc(CN(C(=O)[C@@H]2CNCC[C@H]2c2ccn(C)c(=O)c2)C2CC2)cc(-c2ccccc2)c1 (relative stereo) [Example 33, trans-N-Cyclopropyl-4-(1-methyl-2-oxo-1,2-dihydro-4-pyridinyl)-N-({5-[3-(methyloxy)propyl]-3-biphenylyl}methyl)-3-piperidinecarboxamide] | 15 | 81 | – | –
COCCNc1cc(CN(C(=O)[C@@H]2CNCC[C@H]2c2ccn(C)c(=O)c2)C2CC2)c2ccccc2c1 (relative stereo) [Example 36, trans-N-Cyclopropyl-4-(1-methyl-2-oxo-1,2-dihydro-4-pyridinyl)-N-[(3-{[2-(methyloxy)ethyl]amino}-1-naphthalenyl)methyl]-3-piperidinecarboxamide] | – | – | 5.3 | 2.4
Cn1ccc([C@@H]2CCNC[C@H]2C(=O)N(Cc2cn(Cc3cccc(F)c3)c3cccc(F)c23)C2CC2)cc1=O (relative stereo) [Example 68, trans-N-Cyclopropyl-N-({4-fluoro-1-[(3-fluorophenyl)methyl]-1H-indol-3-yl]methyl}-4-(1-methyl-2-oxo-1,2-dihydro-4-pyridinyl)-3-piperidinecarboxamide] | 0.06 | 0.6 | – | –
COCCCn1cc(CN(C(=O)[C@@H]2CNCC[C@H]2c2ccn(C)c(=O)c2)C2CC2)c2c(F)cccc21 (relative stereo) [Example 69, trans-N-Cyclopropyl-N-({4-fluoro-1-[3-(methyloxy)propyl]-1H-indol-3-yl}methyl)-4-(1-methyl-2-oxo-1,2-dihydro-4-pyridinyl)-3-piperidinecarboxamide] | 0.3 | 0.9 | – | –
Cn1ccc([C@@H]2CCNC[C@H]2C(=O)N(Cc2cn(Cc3cccc(F)c3)c3cccc(Br)c23)C2CC2)cc1=O (relative stereo) [Example 73, trans-N-({4-Bromo-1-[(3-fluorophenyl)methyl]-1H-indol-3-yl}methyl)-N-cyclopropyl-4-(1-methyl-2-oxo-1,2-dihydro-4-pyridinyl)-3-piperidinecarboxamide] | < 0.06 | 0.5 | – | –
Cn1ccc([C@@H]2CCNC[C@H]2C(=O)N(Cc2c[nH]c3cccc(F)c23)C2CC2)cc1=O (relative stereo) [Example 75, trans-N-Cyclopropyl-N-[(4-fluoro-1H-indol-3-yl)methyl]-4-(1-methyl-2-oxo-1,2-dihydro-4-pyridinyl)-3-piperidinecarboxamide] | 12.7 | 8.4 | – | –
Cn1ccc([C@@H]2CCNC[C@H]2C(=O)N(Cc2cn(Cc3ccncc3)c3cccc(F)c23)C2CC2)cc1=O (relative stereo) [Example 77, trans-N-Cyclopropyl-N-{[4-fluoro-1-(4-pyridinylmethyl)-1H-indol-3-yl]methyl}-4-(1-methyl-2-oxo-1,2-dihydro-4-pyridinyl)-3-piperidinecarboxamide] | 0.2 | 0.5 | – | –
COCCCn1cc(CN(C(=O)[C@@H]2CNCC[C@H]2c2ccn(C)c(=O)c2)C2CC2)c(=O)n(CCCOC)c1=O (relative stereo) [Example 79, trans-N-({1,3-Bis[3-(methyloxy)propyl]-2,4-dioxo-1,2,3,4-tetrahydro-5-pyrimidinyl}methyl)-N-cyclopropyl-4-(1-methyl-2-oxo-1,2-dihydro-4-pyridinyl)-3-piperidinecarboxamide] | 58 | 75 | – | –

Further lines, results first:

IC50 (Human recombinant renin; [2]) [nM] | IC50 [1, 3] [nM] | IC50 (Human recombinant renin; Human Renin IC50 (buffer)) [nM] | IC50 ([1]; Human Renin IC50 (plasma)) [nM] | SMILES
4.7 | 12.3 | – | – | COCCCc1ccc(SC)c(CN(C(=O)[C@H]2CNCC[C@@H]2c2ccn(C)c(=O)c2)C2CC2)c1 (relative stereo) [Example 84, trans-N-Cyclopropyl-4-(1-methyl-2-oxo-1,2-dihydro-4-pyridinyl)-N-{[5-[3-(methyloxy)propyl]-2-(methylthio)phenyl]methyl}-3-piperidinecarboxamide]
0.9 | 1.3 | – | – | COCCCc1cc(CN(C(=O)[C@H]2CNCC[C@@H]2c2ccn(C)c(=O)c2)C2CC2)cc(Br)c1C (relative stereo) [Example 85, trans-N-({3-Bromo-4-methyl-5-[3-(methyloxy)propyl]phenyl}methyl)-N-cyclopropyl-4-(1-methyl-2-oxo-1,2-dihydro-4-pyridinyl)-3-piperidinecarboxamide]
0.2 | 0.5 | – | – | COCCCc1cc(CCCOC)c(Cl)c(CN(C(=O)[C@H]2CNCC[C@@H]2c2ccn(C)c(=O)c2)C2CC2)c1 (relative stereo) [Example 89, trans-N-[2-Chloro-3,5-bis(3-methoxypropyl)benzyl]-N-cyclopropyl-4-(1-methyl-2-oxo-1,2-dihydro-4-pyridinyl)-3-piperidinecarboxamide]
0.3 | 1.4 | – | – | Cc1c(Br)cc(CN(C(=O)[C@@H]2CNCC[C@H]2c2ccn(C)c(=O)c2)C2CC2)cc1CCCOC(F)F (relative stereo) [Example 103, trans-N-{3-Bromo-5-[3-(difluoromethoxy)propyl]-4-methylbenzyl}-N-cyclopropyl-4-(1-methyl-2-oxo-1,2-dihydro-4-pyridinyl)-3-piperidinecarboxamide]
7.5 | 21 | – | – | Cc1cc(Cc2ccccc2)cc(CN(C(=O)[C@@H]2CNCC[C@H]2c2ccn(C)c(=O)c2)C2CC2)c1 (relative stereo) [Example 104, trans-N-(3-Benzyl-5-methylbenzyl)-N-cyclopropyl-4-(1-methyl-2-oxo-1,2-dihydro-4-pyridinyl)-3-piperidinecarboxamide]
1.3 | 3.2 | – | – | COCCc1ccc(Cl)c(CN(C(=O)[C@H]2CNCC[C@]2(OC)c2ccn(C)c(=O)c2)C2CC2)c1 (relative stereo) [Example 109]
0.3 | 1.2 | – | – | COCCCc1ccc2c(c1)C(N(C(=O)[C@H]1CNCCC1c1ccn(C)c(=O)c1)C1CC1)CCC2 (single isomer, unassigned) [Example 100 Diastereomer A, trans-N-Cyclopropyl-N-[7-(3-methoxypropyl)-1,2,3,4-tetrahydro-1-naphthalenyl]-4-(1-methyl-2-oxo-1,2-dihydro-4-pyridinyl)-3-piperidinecarboxamide]
3.6 | 16.2 | – | – | COCCCc1ccc2c(c1)C(N(C(=O)[C@H]1CNCCC1c1ccn(C)c(=O)c1)C1CC1)CCC2 (single isomer, unassigned) [Example 100 Diastereomer B, trans-N-Cyclopropyl-N-[7-(3-methoxypropyl)-1,2,3,4-tetrahydro-1-naphthalenyl]-4-(1-methyl-2-oxo-1,2-dihydro-4-pyridinyl)-3-piperidinecarboxamide]
